Measured values reported in US12421205B2, “GLP-1 receptor agonist” (HYUNDAI PHARM CO., LTD., priority 2019, dated 2025).

Tests used:
human GLP-1 receptor = target: T1, human GLP-1 receptor (Homo sapiens, UniProt P43220); assay: cAMP activity test (cAMP dynamic HTRF kit) in CHO-K1/GLP-1 receptor-expressing cells; type: cell-based; settings: cAMP activity, CHO-K1/GLP-1 receptor-expressing cells; read-out: EC50
T1 construct: host or cells: CHO-K1
How it was run: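 Cells in HBSS with 0.1% BSA, 0.5 mM IBMX and 5 mM HEPES, then lysed; cAMP-d2 and anti-cAMP cryptate added for 3 h. HTRF read-out, where FRET signal is inversely proportional to intracellular cAMP.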

hERG = target: T2, hERG (Homo sapiens, UniProt Q12809); assay: hERG inhibition test (Predictor hERG Fluorescence Polarization assay kit); type: binding; settings: probe kit Tracer (fluorescent hERG ligand), hERG % inhibition at 10 uM, relative to E-4031 and solvent control
T2 construct: purchased Invitrogen PV5365
How it was run: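 Competitive fluorescence-polarization binding of fluorescent tracer to hERG membrane preparation, 2.5 h at room temperature, mP read at 531/579 nm. % inhibition at 10 uM test compound, scaled between solvent control (0%) and E-4031 (100%).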

T2 sequence (Q12809 whole entry): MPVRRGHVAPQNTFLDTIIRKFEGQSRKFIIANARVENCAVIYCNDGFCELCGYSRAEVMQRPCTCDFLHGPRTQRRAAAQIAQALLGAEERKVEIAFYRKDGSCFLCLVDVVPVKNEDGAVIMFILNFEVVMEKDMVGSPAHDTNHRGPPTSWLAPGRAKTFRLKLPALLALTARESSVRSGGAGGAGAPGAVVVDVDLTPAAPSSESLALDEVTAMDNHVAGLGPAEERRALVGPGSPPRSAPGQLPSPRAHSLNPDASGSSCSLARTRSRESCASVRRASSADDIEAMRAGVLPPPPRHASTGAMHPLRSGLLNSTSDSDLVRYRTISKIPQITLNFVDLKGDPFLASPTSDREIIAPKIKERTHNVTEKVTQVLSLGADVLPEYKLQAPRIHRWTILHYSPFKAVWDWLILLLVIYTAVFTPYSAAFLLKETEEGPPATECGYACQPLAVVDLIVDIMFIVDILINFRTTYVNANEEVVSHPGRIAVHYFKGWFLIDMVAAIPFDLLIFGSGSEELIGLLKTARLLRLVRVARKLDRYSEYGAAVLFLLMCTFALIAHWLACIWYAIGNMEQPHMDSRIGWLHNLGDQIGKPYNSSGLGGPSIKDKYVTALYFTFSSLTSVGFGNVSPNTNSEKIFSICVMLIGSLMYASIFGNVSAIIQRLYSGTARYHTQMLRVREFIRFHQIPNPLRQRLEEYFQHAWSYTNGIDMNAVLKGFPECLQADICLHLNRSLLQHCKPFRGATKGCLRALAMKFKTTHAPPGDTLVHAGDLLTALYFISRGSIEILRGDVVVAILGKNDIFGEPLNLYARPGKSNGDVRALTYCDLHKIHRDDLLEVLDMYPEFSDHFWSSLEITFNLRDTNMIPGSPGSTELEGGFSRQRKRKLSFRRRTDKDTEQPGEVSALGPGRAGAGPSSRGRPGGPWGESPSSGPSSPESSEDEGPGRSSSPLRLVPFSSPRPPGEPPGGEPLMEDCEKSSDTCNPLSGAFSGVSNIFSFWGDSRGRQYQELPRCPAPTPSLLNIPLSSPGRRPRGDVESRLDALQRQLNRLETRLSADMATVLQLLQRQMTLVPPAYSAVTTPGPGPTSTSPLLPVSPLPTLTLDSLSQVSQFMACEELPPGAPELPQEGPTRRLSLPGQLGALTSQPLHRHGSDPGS
T1 sequence (P43220 24-463): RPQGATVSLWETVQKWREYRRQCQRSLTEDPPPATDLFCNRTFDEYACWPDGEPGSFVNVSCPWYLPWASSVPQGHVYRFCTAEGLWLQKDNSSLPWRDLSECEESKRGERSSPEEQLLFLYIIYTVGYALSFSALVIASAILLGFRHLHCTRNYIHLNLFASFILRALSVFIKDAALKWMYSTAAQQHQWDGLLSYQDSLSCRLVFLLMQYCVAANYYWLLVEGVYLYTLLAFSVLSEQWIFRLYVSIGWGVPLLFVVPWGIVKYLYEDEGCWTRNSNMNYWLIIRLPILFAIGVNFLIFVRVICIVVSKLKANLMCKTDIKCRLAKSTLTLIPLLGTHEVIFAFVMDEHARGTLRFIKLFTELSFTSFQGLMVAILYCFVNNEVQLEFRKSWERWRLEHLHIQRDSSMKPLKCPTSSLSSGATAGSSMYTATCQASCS

Row | EC50 (human GLP-1 receptor) [nM] | Structure (SMILES) | inhibition at 2.5 h, 10 µM (hERG) [%]
1 | 460 | Cc1cc(Cc2nc3ccc(C(=O)O)cc3n2Cc2ccco2)ccc1-c1cccc(OCc2ccc(C#N)cc2F)n1 [Example 30, 2-(4-(6-(4-cyano-2-fluorobenzyloxy)pyridin-2-yl)-3-methylbenzyl)-1-(furan-2-ylmethyl)-1H-benzo[d]imidazole-6-carboxylic acid] | 0.33
2 | 14 | O=C(O)c1ccc2nc(Cc3ccc(-c4cccc(OCc5ccc(Cl)cc5F)n4)cc3F)n(Cc3cccs3)c2c1 [Example 49, 2-(4-(6-(4-chloro-2-fluorobenzyloxy)pyridin-2-yl)-2-fluorobenzyl)-1-(thiophen-2-ylmethyl)-1H-benzo[d]imidazole-6-carboxylic acid] | 12.5
3 | 110 | O=C(O)c1ccc2nc(Cn3ccc(-c4cccc(OCc5ccc(Cl)cc5F)c4)cc3=O)n(CC3CCCO3)c2c1 (stereo not drawn) [Example 106, 2-((4-(3-(4-chloro-2-fluorobenzyloxy)phenyl)-2-oxopyridin-1(2H)-yl)methyl)-1-((tetrahydrofuran-2-yl)methyl)-1H-benzo[d]imidazole-6-carboxylic acid] | -2.71
4 | 8.7 | O=C(O)c1ccc2nc(Cc3ccc(-c4cccc(OCc5ccc(Cl)cc5F)n4)c(F)c3F)n(CC3CCCO3)c2c1 (stereo not drawn) [Example 61, 2-(4-(6-(4-chloro-2-fluorobenzyloxy)pyridin-2-yl)-2,3-difluorobenzyl)-1-((tetrahydrofuran-2-yl)methyl)-1H-benzo[d]imidazole-6-carboxylic acid] | -6.72
5 | 40 | N#Cc1ccc(COc2cccc(-c3ccc(Cc4nc5ccc(C(=O)O)cc5n4Cc4ccco4)c(F)c3)n2)c(F)c1 [Example 19, 2-(4-(6-(4-cyano-2-fluorobenzyloxy)pyridin-2-yl)-2-fluorobenzyl)-1-(furan-2-ylmethyl)-1H-benzo[d]imidazole-6-carboxylic acid] | 1.8
6 | 160 | COc1cc(-c2cccc(OCc3ccc(Cl)cc3F)n2)ccc1Cc1nc2ccc(C(=O)O)cc2n1CC1CCCO1 (stereo not drawn) [Example 63, 2-(4-(6-(4-chloro-2-fluorobenzyloxy)pyridin-2-yl)-2-methoxybenzyl)-1-((tetrahydrofuran-2-yl)methyl)-1H-benzo[d]imidazole-6-carboxylic acid] | -19.6
7 | 250 | Cc1cccc(COc2cccc(-c3ccc(Cc4nc5ccc(C(=O)O)cc5n4CC4CCCO4)cc3F)n2)c1 (stereo not drawn) [Example 90, 2-(3-fluoro-4-(6-(3-methylbenzyloxy)pyridin-2-yl)benzyl)-1-((tetrahydrofuran-2-yl)methyl)-1H-benzo[d]imidazole-6-carboxylic acid] | 20.2
8 | 37 | O=C(O)c1ccc2nc(Cc3ccc(-c4cccc(OCc5ccc(F)c(F)c5)n4)c(F)c3)n(C[C@@H]3CCO3)c2c1 [Example 125, (S)-2-(4-(6-((3,4-difluorobenzyl)oxy)pyridin-2-yl)-3-fluorobenzyl)-1-(oxetan-2-ylmethyl)-1H-benzo[d]imidazole-6-carboxylic acid] | -19.5
9 | < 3.2 | O=C(O)c1ccc2nc(Cc3ccc(-c4cccc(OCc5ccc(Cl)cc5F)n4)c(F)c3)n(C[C@@H]3CCO3)c2c1 [Example 79, (S)-2-(4-(6-(4-chloro-2-fluorobenzyloxy)pyridin-2-yl)-3-fluorobenzyl)-1-(oxetan-2-ylmethyl)-1H-benzo[d]imidazole-6-carboxylic acid] | -2.04
10 | 210 | O=C(O)c1ccc2nc(Cc3ccc(-c4cccc(OCc5ccc(Cl)cc5F)n4)c(F)c3)n(CCF)c2c1 [Example 55, 2-(4-(6-(4-chloro-2-fluorobenzyloxy)pyridin-2-yl)-3-fluorobenzyl)-1-(2-fluoroethyl)-1H-benzo[d]imidazole-6-carboxylic acid] | 35.4
11 | 38 | Cc1ccc(COc2cccc(-c3ccc(Cc4nc5ccc(C(=O)O)cc5n4CC4CCCO4)c(F)c3)n2)cc1 (stereo not drawn) [Example 76, 2-(2-fluoro-4-(6-(4-methylbenzyloxy)pyridin-2-yl)benzyl)-1-((tetrahydrofuran-2-yl)methyl)-1H-benzo[d]imidazole-6-carboxylic acid] | -0.5
12 | 20 | O=C(O)c1ccc2nc(Cn3ccc(-c4cccc(OCc5ccc(Cl)cc5F)n4)cc3=O)n(CC3CCO3)c2c1 (stereo not drawn) [Example 127, 2-((6-((4-chloro-2-fluorobenzyl)oxy)-2′-oxo-[2,4′-bipyridin]-1′(2′H)-yl)methyl)-1-(oxetan-2-ylmethyl)-1H-benzo[d]imidazole-6-carboxylic acid] | 2.3
13 | 37 | N#Cc1ccc(COc2cccc(-c3ccc(Cc4nc5ccc(C(=O)O)cc5n4CC4CCCO4)c(F)c3F)n2)c(F)c1 (stereo not drawn) [Example 62, 2-(4-(6-(4-cyano-2-fluorobenzyloxy)pyridin-2-yl)-2,3-difluorobenzyl)-1-((tetrahydrofuran-2-yl)methyl)-1H-benzo[d]imidazole-6-carboxylic acid] | -7.49
14 | 28 | O=C(O)c1ccc2nc(Cc3ccc(-c4cccc(OCc5ccc(C(F)(F)F)cc5)n4)cc3F)n(CC3CCCO3)c2c1 (stereo not drawn) [Example 77, 2-(2-fluoro-4-(6-(4-(trifluoromethyl)benzyloxy)pyridin-2-yl)benzyl)-1-((tetrahydrofuran-2-yl)methyl)-1H-benzo[d]imidazole-6-carboxylic acid] | -70.9
15 | < 3.2 | O=C(O)c1ccc2nc(Cc3cc(F)c(-c4cccc(OCc5ccc(Cl)cc5F)n4)cc3F)n(CC3CCCO3)c2c1 (stereo not drawn) [Example 70, 2-(4-(6-(4-chloro-2-fluorobenzyloxy)pyridin-2-yl)-2,5-difluorobenzyl)-1-((tetrahydrofuran-2-yl)methyl)-1H-benzo[d]imidazole-6-carboxylic acid] | -6.14
16 | 85 | O=C(O)c1ccc2nc(Cc3ccc(-c4cccc(OCc5ccc(Cl)cc5F)n4)cc3)n(Cc3ccco3)c2c1 [Example 12, 2-(4-(6-(4-chloro-2-fluorobenzyloxy)pyridin-2-yl)benzyl)-1-(furan-2-ylmethyl)-1H-benzo[d]imidazole-6-carboxylic acid] | -2.74
17 | 460 | O=C(O)c1ccc2nc(Cc3ccc(-c4cccc(OCc5nc6ccccc6s5)n4)c(F)c3)n(C[C@@H]3CCO3)c2c1 [Example 132, (S)-2-(4-(6-(benzo[d]thiazol-2-ylmethoxy)pyridin-2-yl)-3-fluorobenzyl)-1-(oxetan-2-ylmethyl)-1H-benzo[d]imidazole-6-carboxylic acid] | -7.11
18 | 130 | N#Cc1ccc(COc2cccc(-c3ccc(Cc4nc5ccc(C(=O)O)cc5n4Cc4ccco4)c(F)c3)c2)c(F)c1 [Example 28, 2-((3′-(4-cyano-2-fluorobenzyloxy)-3-fluorobiphenyl-4-yl)methyl)-1-(furan-2-ylmethyl)-1H-benzo[d]imidazole-6-carboxylic acid] | 0.52
19 | 93 | N#Cc1ccc(COc2cccc(-c3ccc(Cc4nc5ccc(C(=O)O)cc5n4CC4CCCO4)c(F)c3)c2)c(F)c1 (stereo not drawn) [Example 14, 2-((3′-(4-cyano-2-fluorobenzyloxy)-3-fluorobiphenyl-4-yl)methyl)-1-((tetrahydrofuran-2-yl)methyl)-1H-benzo[d]imidazole-6-carboxylic acid] | -6.08
20 | 32 | O=C(O)c1ccc2nc(Cc3ccc(-c4cccc(OCc5ccc(Cl)cc5F)c4)cc3F)n(Cc3cnco3)c2c1 [Example 32, 2-((3′-(4-chloro-2-fluorobenzyloxy)-3-fluorobiphenyl-4-yl)methyl)-1-(oxazol-5-ylmethyl)-1H-benzo[d]imidazole-6-carboxylic acid] | -11.7
21 | 250 | O=C(O)c1ccc2nc(Cc3ccc(-c4cccc(OCc5ccc(Cl)cc5F)c4)c(F)c3)n(C[C@H]3CCCO3)c2c1 [Example 42, (R)-2-((3′-(4-chloro-2-fluorobenzyloxy)-2-fluorobiphenyl-4-yl)methyl)-1-((tetrahydrofuran-2-yl)methyl)-1H-benzo[d]imidazole-6-carboxylic acid] | -23.6
